# US12043617B2, “4-(N-methyl) aminopiperidine myricetin derivative containing dithiocarbamate, preparation method and application” (Guizhou University, priority 2019, dated 2024)
# Test system: SMMC-7721 cells
# Assay: MTT colorimetry, inhibition of hepatocellular carcinoma SMMC-7721 cell activity
# Type: cell-based
# Conditions: 48 hours
# Description: Test for Inhibition of Cancer Cell Activity by Compound of Embodiment 19 (Taking Hepatocellular Carcinoma SMMC-7721 Cells as an embodiment):
# SMMC-7721 cells are cultured in DMEM high sugar medium containing 10% fetal bovine serum in a saturated humidity incubator at 37° C. and 5% CO2. The culture medium is changed every two days and passaged every 3-4 days. The drug is prepared as 1 mmol/L and 10 mmol/L storage solution using DMSO as solvent, when used, the concentration is diluted into 1 μmol/L and 10 μmol/L with culture medium, using DMSO as negative control group and gemcitabine as positive control group to act on cells in logarithmic growth phase.
# Cells in logarithmic growth phase are digested with 0.025% pancreatin, and then digested with DMEM high sugar medium containing 10% fetal bovine serum. After centrifugation, the cells are suspended in DMEM high sugar medium containing 10% fetal bovine serum. Take a 96-well plate and add 200 μL of sterile water seal to each hole around the plate to ensure saturated humidity in the experiment. In the middle six rows, 100 μL of cell suspension are added respectively, and the cell concentration is about 3.5×10^4 cells/mL. The last row is blank control group, and the same volume of complete culture medium is added. In 37° C., 5% CO2 saturated humidity incubator culture for 24 hours, cells completely adhere to the wall, remove the culture medium, add complete culture medium containing different drugs, 200 μL per hole. The blank control group is added with 200 μL of complete culture medium, and the culture is continued. After 24 hours, the drug effect is observed and photographed under an inverted microscope. After 48 hours, the drug effect is also observed and photographed under an inverted microscope. Then the supernatant is removed. 100 μL of 0.5 mg/mL MTT solution is added to each well. After 4 hours of continuous culture, purple crystal formazan is generated. 100 μL of 10% SDS is added to each well. After 12 hours of culture in an incubator at 37° C., the OD value is measured with an enzyme reader at A571 wavelength. Repeat 6 wells for each sample concentration, and calculate the inhibition rate by taking the average value.
Structure (SMILES),Inhibition Rate (%) (1 μmol/L),Inhibition Rate (%) (10 μmol/L),"inhibition at 1 µM (Homo sapiens, 1 μmol/L, read-out: Inhibition Rate (%)) [%]","inhibition at 10 µM (Homo sapiens, 10 μmol/L, read-out: Inhibition Rate (%)) [%]"
"COc1cc(OC)c2c(=O)c(OCCCN(C)C3CCN(C(=S)SCc4cccc(C)c4)CC3)c(-c3cc(OC)c(OC)c(OC)c3)oc2c1 [Compound A5, 3-methylbenzyl 4-((3-((5,7-dimethoxy-4-oxo-2-(3,4,5-trimethoxyphenyl)-4H-chromene-3-yl)oxy)propyl) (methyl)amino) piperidine-1-dithiocarboxylic acid]",12.32 ± 2.39,97.52 ± 1.12,,
"COc1cc(OC)c2c(=O)c(OCCCN(C)C3CCN(C(=S)SCc4ccc(Cl)nc4)CC3)c(-c3cc(OC)c(OC)c(OC)c3)oc2c1 [Compound A9, (6-chloropyridine-3-yl) methyl 4-((3-((5,7-dimethoxy-4-oxo-2-(3,4,5-trimethoxyphenyl)-4H-benzopyran-3-yl)oxygen)propyl) (methyl)amino) piperidine-1-dithiocarboxylic acid]",18.83 ± 3.15,99.76 ± 1.06,,
"COc1cc(OC)c2c(=O)c(OCCCCN(C)C3CCN(C(=S)SCc4ccccc4F)CC3)c(-c3cc(OC)c(OC)c(OC)c3)oc2c1 [Compound A13, 2-fluorobenzyl-4-((4-((5,7-dimethoxy-4-oxo-2-(3,4,5-trimethoxyphenyl)-4H-benzopyran-3-yl)oxy)butyl) (methyl)amino) piperidine-1-dithiocarboxylic acid]",46.96 ± 4.65,99.76 ± 1.06,,
"COc1cc(OC)c2c(=O)c(OCCCCN(C)C3CCN(C(=S)SCc4cccnc4)CC3)c(-c3cc(OC)c(OC)c(OC)c3)oc2c1 [Compound A17, pyridine-3-ylmethyl-4-((4-((5,7-dimethoxy-4-oxo-2-(3,4,5-trimethoxyphenyl)-4H-benzopyran-3-yl)oxy)butyl) (methyl)amino) piperidine-1-dithiocarboxylic acid]",68.42 ± 2.35,100 ± 1.31,,
"Nc1ccn([C@@H]2O[C@H](CO)[C@@H](O)C2(F)F)c(=O)n1 [Gencitabine, gemcitabine, reference compound]",,,55.7 ± 2.26,63.5 ± 2.18
"COc1cc(OC)c2c(=O)c(OCCCCN(C)C3CCN(C(=S)SCc4ccccc4C)CC3)c(-c3cc(OC)c(OC)c(OC)c3)oc2c1 [Compound A15, 2-methylbenzyl-4-((4-((5,7-dimethoxy-4-oxo-2-(3,4,5-trimethoxyphenyl)-4H-benzopyran-3-yl)oxy)butyl) (methyl)amino) piperidine-1-dithiocarboxylic acid]",16.38 ± 3.82,99.52 ± 1.12,,
"COc1cc(OC)c2c(=O)c(OCCCCN(C)C3CCN(C(=S)SCc4ccc(Cl)nc4)CC3)c(-c3cc(OC)c(OC)c(OC)c3)oc2c1 [Compound A18, (6-chloropyridine-3-yl) methyl-4-((4-((5,7-dimethoxy-4-oxo-2-(3,4,5-trimethoxyphenyl)-4H-benzopyran-3-yl)oxy)butyl) (methyl)amino) piperidine-1-dithiocarboxylic acid]",33.58 ± 1.67,100 ± 0.42,,
"COc1cc(OC)c2c(=O)c(OCCCN(C)C3CCN(C(=S)SCc4ccccc4Cl)CC3)c(-c3cc(OC)c(OC)c(OC)c3)oc2c1 [Compound A2, 2-chlorobenzyl-4-((3-((5,7-dimethoxy-4-oxo-2-(3,4,5-trimethoxyphenyl)-4H-chromene-3-yl)oxy)propyl)(methyl)amino)piperidine-1-dithiocarboxylic acid]",25.44 ± 3.25,96.13 ± 3.42,,
"COc1cc(OC)c2c(=O)c(OCCCCN(C)C3CCN(C(=S)SCc4ccccc4Cl)CC3)c(-c3cc(OC)c(OC)c(OC)c3)oc2c1 [Compound A11, 2-chlorobenzyl-4-((4-((5,7-dimethoxy-4-oxo-2-(3,4,5-trimethoxyphenyl)-4H-benzopyran-3-yl)oxy)butyl) (methyl)amino) piperidine-1-dithiocarboxylic acid]",91.00 ± 2.86,99.85 ± 1.64,,
"COc1cc(OC)c2c(=O)c(OCCCN(C)C3CCN(C(=S)SCc4ccc([N+](=O)[O-])cc4)CC3)c(-c3cc(OC)c(OC)c(OC)c3)oc2c1 [Compound A7, 4-nitrobenzyl 4-((3-((5,7-dimethoxy-4-oxo-2-(3,4,5-trimethoxyphenyl)-4H-chromene-3-yl)oxy)propyl) (methyl)amino) piperidine-1-dithiocarboxylic acid]",27.70 ± 1.09,99.35 ± 3.48,,
"COc1cc(OC)c2c(=O)c(OCCCCN(C)C3CCN(C(=S)SCc4cccc(C)c4)CC3)c(-c3cc(OC)c(OC)c(OC)c3)oc2c1 [Compound A14, 3-methylbenzyl-4-((4-((5,7-dimethoxy-4-oxo-2-(3,4,5-trimethoxyphenyl)-4H-benzopyran-3-yl)oxy)butyl) (methyl)amino) piperidine-1-dithiocarboxylic acid]",96.65 ± 2.61,100 ± 0.42,,
"COc1cc(OC)c2c(=O)c(OCCCCN(C)C3CCN(C(=S)SCc4ccc(Cl)cc4Cl)CC3)c(-c3cc(OC)c(OC)c(OC)c3)oc2c1 [Compound A12, 2,4-dichlorobenzyl-4-((4-((5,7-dimethoxy-4-oxo-2-(3,4,5-trimethoxyphenyl)-4H-benzopyran-3-yl)oxy)butyl) (methyl)amino) piperidine-1-dithiocarboxylic acid]",98.09 ± 2.68,99.28 ± 1.04,,
"COc1cc(OC)c2c(=O)c(OCCCCN(C)C3CCN(C(=S)SCc4ccc(Cl)cc4)CC3)c(-c3cc(OC)c(OC)c(OC)c3)oc2c1 [Compound A10, 4-chlorobenzyl-4-((4-((5,7-dimethoxy-4-oxo-2-(3,4,5-trimethoxyphenyl)-4H-benzopyran-3-yl)oxy)butyl) (methyl)amino) piperidine-1-dithiocarboxylic acid]",92.83 ± 3.84,97.85 ± 3.35,,
"COc1cc(OC)c2c(=O)c(OCCCN(C)C3CCN(C(=S)SCc4ccc(Cl)cc4Cl)CC3)c(-c3cc(OC)c(OC)c(OC)c3)oc2c1 [Compound A3, 2,4-dichlorobenzyl 4-((3-((5,7-dimethoxy-4-oxo-2-(3,4,5-trimethoxyphenyl)-4H-chromene-3-yl)oxy)propyl) (methyl)amino) piperidine-1-dithiocarboxylic acid]",18.16 ± 2.14,97.35 ± 1.78,,
"COc1cc(OC)c2c(=O)c(OCCCCN(C)C3CCN(C(=S)SCc4ccc([N+](=O)[O-])cc4)CC3)c(-c3cc(OC)c(OC)c(OC)c3)oc2c1 [Compound A16, 4-nitrobenzyl-4-((4-((5,7-dimethoxy-4-oxo-2-(3,4,5-trimethoxyphenyl)-4H-benzopyran-3-yl)oxy)butyl) (methyl)amino) piperidine-1-dithiocarboxylic acid]",26.84 ± 4.36,99.85 ± 0.71,,
"COc1cc(OC)c2c(=O)c(OCCCN(C)C3CCN(C(=S)SCc4cccnc4)CC3)c(-c3cc(OC)c(OC)c(OC)c3)oc2c1 [Compound A8, pyridine-3-ylmethyl 4-((3-((5,7-dimethoxy-4-oxo-2-(3,4,5-trimethoxyphenyl)-4H-chromene-3-yl)oxy)propyl) (methyl)amino) piperidine-1-dithiocarboxylic acid]",15.48 ± 2.74,99.85 ± 1.64,,
"COc1cc(OC)c2c(=O)c(OCCCN(C)C3CCN(C(=S)SCc4ccc(Cl)cc4)CC3)c(-c3cc(OC)c(OC)c(OC)c3)oc2c1 [Compound A1, 4-chlorobenzyl 4-((3-((5,7-dimethoxy-4-oxo-2-(3,4,5-trimethoxyphenyl)-4H-chromene-3-yl)oxy)propyl)(methyl)amino)piperidine-1-dithiocarboxylic acid]",21.82 ± 2.34,95.51 ± 4.16,,
"COc1cc(OC)c2c(=O)c(OCCCN(C)C3CCN(C(=S)SCc4ccccc4F)CC3)c(-c3cc(OC)c(OC)c(OC)c3)oc2c1 [Compound A4, 2-fluorobenzyl 4-((3-((5,7-dimethoxy-4-oxo-2-(3,4,5-trimethoxyphenyl)-4H-chromene-3-yl)oxy)propyl)(methyl)amino) piperidine-1-dithiocarboxylic acid]",20.66 ± 1.21,99.85 ± 1.64,,
"COc1cc(OC)c2c(=O)c(OCCCN(C)C3CCN(C(=S)SCc4ccccc4C)CC3)c(-c3cc(OC)c(OC)c(OC)c3)oc2c1 [Compound A6, 2-methylbenzyl 4-((3-((5,7-dimethoxy-4-oxo-2-(3,4,5-trimethoxyphenyl)-4H-chromene-3-yl)oxy)propyl) (methyl)amino) piperidine-1-dithiocarboxylic acid]",34.32 ± 2.69,98.12 ± 2.76,,
